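Following 48 hours of exposure in 96-well plates, responses at five concentrations were used to interpolate endpoints linearly. GI50 = concentration required for 50% inhibition of growth. Definition used: TGI = concentration required for complete inhibition of growth.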
Tests used:
Test in all cases: NCI tumour cell line growth inhibition, 48 h
[1] = test system: MCF7 breast
[2] = test system: M14 melanoma
[3] = test system: HS 578T breast
[4] = test system: T-47D breast
[5] = test system: A498 renal
[6] = test system: NCI-H23 lung
[7] = test system: RPMI-8226 leukemia
[8] = test system: TK-10 renal
[9] = test system: 786-0 renal
[10] = test system: K-562 leukemia
[11] = test system: MDA-MB-231 breast
[12] = test system: NCI-H226 lung
[13] = test system: SF-268 CNS
[14] = test system: MALME-3M melanoma
[15] = test system: NCI-H460 lung
[16] = test system: CAKI-1 renal
[17] = test system: U251 CNS
[18] = test system: UACC-257 melanoma
[19] = test system: HOP-62 NSCLC
[20] = test system: KM12 colon
[21] = test system: CCRF-CEM leukemia
[22] = test system: OVCAR-8 ovarian
[23] = test system: SK-MEL-28 melanoma
[24] = test system: NCI/ADR-RES ovarian
[25] = test system: SF-295 CNS
[26] = test system: HCT-15 colon
[27] = test system: SW-620 colon
[28] = test system: OVCAR-4 ovarian
[29] = test system: HL-60(TB) leukemia
[30] = test system: SR leukemia
[31] = test system: A549 NSCLC
[32] = test system: SK-MEL-5 melanoma
[33] = test system: IGROV1 ovarian
[34] = test system: UO-31 renal
[35] = test system: PC-3 prostate
[36] = test system: HT29 colon
[37] = test system: MOLT-4 leukemia
[38] = test system: RXF 393 renal
[39] = test system: OVCAR-5 ovarian
[40] = test system: SK-MEL-2 melanoma
[41] = test system: NCI-H522 lung
[42] = test system: HCC-2998 colon
[43] = test system: SNB-75 CNS
[44] = test system: UACC-62 melanoma
[45] = test system: BT-549 breast
[46] = test system: SNB-19 CNS
[47] = test system: HCT-116 colon
[48] = test system: MDA-MB-435
[49] = test system: SN12C renal
[50] = test system: ACHN renal
[51] = test system: COLO 205 colon
[52] = test system: DU-145 prostate
[53] = test system: LOX IMVI melanoma
[54] = test system: SF-539 CNS
[55] = test system: OVCAR-3 ovarian
[56] = test system: SK-OV-3 ovarian

Cn1cc(C2=C(c3cn(C)c4c(N)cccc34)C(=O)NC2=O)c2ccccc21
GI50 [1]: 0.673 µM | TGI [1]: > 20.9 µM | GI50 [2]: 2.15 µM | TGI [2]: > 25 µM | GI50 [3]: 0.618 µM | TGI [3]: 19 µM | GI50 [4]: 1.31 µM | TGI [4]: 11.9 µM | GI50 [5]: 0.895 µM | TGI [5]: 4.29 µM | GI50 [6]: 4.33 µM | TGI [6]: 21.3 µM | GI50 [7]: 2.44 µM | TGI [7]: 12.5 µM | GI50 [8]: 4.28 µM | TGI [8]: 18.3 µM | GI50 [9]: 2 µM | TGI [9]: > 25 µM | GI50 [10]: 0.385 µM | TGI [10]: > 25 µM | GI50 [11]: 4.63 µM | TGI [11]: 20.8 µM | GI50 [12]: 3.28 µM | TGI [12]: > 22.1 µM | GI50 [13]: 2.86 µM | TGI [13]: > 25 µM | GI50 [14]: 9.53 µM | TGI [14]: > 25 µM | GI50 [15]: 1.08 µM | TGI [15]: > 25 µM | GI50 [16]: 0.857 µM | TGI [16]: > 25 µM | GI50 [17]: 1.19 µM | TGI [17]: > 19.2 µM | GI50 [18]: 4.76 µM | TGI [18]: > 25 µM | GI50 [19]: 1.25 µM | TGI [19]: > 15.2 µM | GI50 [20]: 0.968 µM | TGI [20]: 12.1 µM | GI50 [21]: 0.797 µM | TGI [21]: > 25 µM | GI50 [22]: 2.85 µM | TGI [22]: > 25 µM | GI50 [23]: 3.43 µM | TGI [23]: > 20.6 µM | GI50 [24]: 2.02 µM | TGI [24]: > 25 µM | GI50 [25]: 0.898 µM | TGI [25]: > 11.6 µM | GI50 [26]: 0.743 µM | TGI [26]: > 25 µM | GI50 [27]: 0.905 µM | TGI [27]: > 25 µM | GI50 [28]: 8.3 µM | TGI [28]: > 23.6 µM | GI50 [29]: 1.05 µM | TGI [29]: 7.28 µM | GI50 [30]: 0.407 µM | TGI [30]: > 25 µM | GI50 [31]: 1.39 µM | TGI [31]: > 25 µM | GI50 [32]: 1.38 µM | TGI [32]: > 14.2 µM | GI50 [33]: 4.2 µM | TGI [33]: > 19.6 µM | GI50 [34]: 1.1 µM | TGI [34]: 10.5 µM | GI50 [35]: 1.37 µM | TGI [35]: > 25 µM | GI50 [36]: 1.25 µM | TGI [36]: 12.8 µM | GI50 [37]: 3.35 µM | TGI [37]: 21.6 µM | GI50 [38]: 1.03 µM | TGI [38]: 6.85 µM | GI50 [39]: 6.41 µM | TGI [39]: > 22.1 µM | GI50 [40]: 1.56 µM | TGI [40]: 11 µM | GI50 [41]: 0.996 µM | TGI [41]: > 15 µM | GI50 [42]: 6.01 µM | TGI [42]: > 25 µM | GI50 [43]: 0.352 µM | TGI [43]: 2.63 µM | GI50 [44]: 2.48 µM | TGI [44]: 18.1 µM | GI50 [45]: 1.01 µM | TGI [45]: 6.66 µM | GI50 [46]: 4.34 µM | TGI [46]: > 25 µM | GI50 [47]: 1.03 µM | TGI [47]: > 20.6 µM | GI50 [48]: 0.0872 µM | TGI [48]: > 25 µM | GI50 [49]: 2.12 µM | TGI [49]: > 25 µM | GI50 [50]: 1.34 µM | TGI [50]: > 23.9 µM | GI50 [51]: 1.99 µM | TGI [51]: 9.96 µM | GI50 [52]: 2.48 µM | TGI [52]: > 25 µM | GI50 [53]: 1.94 µM | TGI [53]: > 25 µM | GI50 [54]: 0.59 µM | TGI [54]: 1.98 µM | GI50 [55]: 0.507 µM | TGI [55]: 1.45 µM | GI50 [56]: 1.22 µM | TGI [56]: > 20.1 µM
